Measured values: patent US8865653B2, “Method of treatment for immunogenic treatment resistant cancer” (Institut Gustave Roussy, priority 2010, dated 2014)

Tests used:
[1] = tested on: U2OS cells stably expressing CRT-GFP; assay: CRT-GFP redistribution (granularity, nuclear shape) by automated microscopy; ICCB library screen; type: cell-based, human
Protocol: The data is depicted as mean±s.e.m. of quadruplicates from a representative experiment. (C) Immunofluorescene was conducted on CRT-GFP expressing cells by means of staining with anti-CRT antibody and subsequent confocal image acquisition. (D) CRT has been cloned in frame n-terminal to a HaloTag® sequence followed by a KDEL ER retention signal. (E) The impermeable HaloTag® ligand forms covalent bonds exclusively with surface exposed HaloTag®-CRT fusion protein, whereas intracellular HaloTag®-CRT remains undetected.
Compounds from the ICCB known bioactive compounds library have been tested for their capacity to induce CRT-exposure. […] The cells were incubated for 4 h and were acquired by means of automated microscopy. The data is depicted as dot plots and representative images (B).
After washing with PBS 4 viewfields per well were acquired by means of a BD pathway 855 automated microscope.

U2OS cells [2] = assay: Analysis of surface exposed CRT (HaloTag ligand, anti-CRT immune staining)
U2OS cells [3] = assay: ATP release assays (quinacrine, luciferin-based); type: cell-based, human; settings: 16 h post-treatment, intracellular and extracellular ATP
Protocol: In short, cells were labeled with 1 μM quinacrine in Krebs-Ringer solution (125 mM NaCl, 5 mM KCl, 1 mM MgSO4, 0.7 mM KH2PO4, 2 mM CaCl2, 6 mM glucose and 25 mM Hepes, pH 7.4) for 30 min at 37° C.
After incubation in quinacrine solution (as described above), cells were rinsed and resuspended in PBS containing 1 μg/ml PI. The samples were analyzed by means of a FACS Vantage (Becton Dickinson) and the data was statistically evaluated using the CellQuest Pro software (BD Biosciences).
(§1) After cell death induction, extracellular ATP was measured by luciferin-based ENLITEN ATP Assay (Promega, Madison, USA) following the manufacturer's instructions. Intracellular ATP was measured using an ATP Assay kit (Calbiochem, Darmstadt, Germany) based on luciferin-luciferase conversion following the manufacturer's instructions. For assessment of the chemoluminescent signal, the plates were read in a Fluostar luminometer (BMG Labtech).

MCA205 cells [4] = assay: In vivo anti-tumor vaccination with treated MCA205 cells (Example 3); settings: s.c. injection, rechallenge with live tumor cells
Protocol: (F) MCA205 cells have been used for tumor vaccination in vivo. […] The mice have been rechallenged after 6 days with living cells and the tumor growth is depicted in the survival plot (n=10).
Tumor growth was evaluated for at least 50 days.

eIF2α = assay: Immunoblotting of eIF2α / PERK phosphorylation; type: cell-based
Description: (E) The phosphorylation status of eIF2α has been assessed by immunoblotting against the phosphoneoepitope Ser51 of eIF2α by means of a monoclonal antibody. A polyclonal antibody has been used to visualize whole eIF2α protein levels.

U2OS cells [5] = type: cell-based
Protocol: The data is depicted as representative images (A) and (B) normalized Bax-GFP granularity values.
The data represents mean±s.e.m. of quadruplicates from a representative experiment. […] 16 h after treatment, cell death was monitored by simultaneous staining with 3,3 dihexyloxacarbocyanine iodide (DiOC6(3)) and propidium iodide (PI), and the percentage of dying (DiOC6(3)^low PI^−, open bars) and dead (DiOC6(3)^low PI^+, closed bars) cells was determined by cytofluorometry.
Cell death was quantified by cytofluorometric analysis using a FACS Vantage (Becton Dickinson, Mountain View, USA) as described previously (REF). Thus, cells were stained with 40 nM 3,3 dihexyloxacarbocyanine iodide (DiOC6(3); Molecular Probes, Eugene, Oreg., USA) for 30 min at 37° C. and concomitantly with 1 μg/ml propidium iodide (PI; Sigma Aldrich) for 30 min at 37° C. to determine the mitochondrial transmembrane potential. Data were statistically evaluated using CellQuest Pro software (Becton Dickinson, Mountain View, USA).

U2OS cells [6] = assay: CRT exposure by anti-CRT surface staining and FACS (Example 4); type: cell-based, human; settings: for effect of antioxidant on CRT exposure upon Digoxin and Digitoxin treatment: NAC and GSH pretreated U2OS cells; for CRT exposure: dose dependent fashion, nanomolar range
Protocol: (D) Cardiac glycosides at 1 μM have been analysed for CRT exposure by means of anti-CRT surface staining and FACS quantification.
(F) U2OS cells treated with the indicated doses of Digoxin and Digitoxin were analyzed for CRT exposure by means of FACS quantified surface staining.

U2OS cells [7] = assay: ATP release ENLITEN assay (Example 4); type: cell-based, human; settings: 15 h, dose dependent fashion, nanomolar range
Protocol: (H) ATP release was quantified by ENLITE 15 h after treatment in the supernatant of cells.
as §1

U2OS cells [8] = assay: HMGB1 release ELISA; type: cell-based, human; settings: 24 h, dose dependent fashion, nanomolar range
Protocol: U2OS cells were seeded in 6 well plates 24 h before the experiment. The medium was changed to fresh DMEM before the treatment was applied. Supernatants were collected at 24 h post treatment, dying tumor cells were removed by centrifugation and supernatants were collected and shock frozen in liquid nitrogen. Quantification of HMGB1 in the collected supernatants was performed by enzyme-linked immunosorbent assay according to the manufacturer's instructions.

MCA205 cells [9] = assay: In vivo anti-tumor vaccination with MitoC / Digoxin treated MCA205 cells; parameters: species or system mice; settings: for vaccination with cells treated with digoxin alone: single treatment
breast cancer = assay: Retrospective clinical study, digoxin during chemotherapy; type: in vivo, human
Protocol: (D) D1: Overall survival of 150 breast cancer patients. 50 digoxin cotreated patients are opposed by 100 non digoxin treated controls.
We retrospectively constructed a patient database using data obtained from Institut Gustave Roussy. The patients were divided into the digoxin receiving and into the control group. For each digoxin receiving patient two control patients with identical tumor grade and chemotherapeutic treatment have been chosen. All digoxin receiving patients were treated with digoxin while receiving chemotherapy. Age at diagnosis, pathological tumor size, lymph node involvement, tumor grade, hormone receptors, endocrine treatments, occurrence of events and follow-up were extracted from medical files and recorded in the database. After generation of the patient database statistical analyses were performed in a blinded fashion. Survival rates were estimated using the Kaplan-Meier method.

U2OS cells [10] = assay: US Drug library screen: CRT-GFP, HMGB1-GFP, quinacrine; settings: 1 μM, 4 h / 24 h / 16 h
γδ T cells = assay: DC-tumor mixed lymphocyte cultures (IL-1β, IL-17A ELISA); type: cell-based, mouse; settings: 20 μg/ml IL-1RA
Protocol: (D) DX-treated MCA205 loaded DC/γδ T cell cross-talk was also performed in the presence of 20 μg/ml IL-1RA (Amgen) or anti-IL-23 or IL-23R neutralizing antibodies or 10 μg/ml IL-18BP or 20 μM CH-223191. IL-1β and IL-17A release was measured at 48 hrs in ELISA.
DC were propagated in Iscoves's medium (Sigma Aldrich) supplemented with J558 supernatant, 100 UI/ml Penicillin, 100 μg/ml Streptomycin, 2 mM L-glutamine, 50 μM 2-mercaptoethanol (Sigma), 10% heat-inactivated and filtered, 10% FCS and 40 ng/ml GM-CSF. DC were used between day 8 and 12 when the proportion of CD11c/MHC class II+ cells was >80%. In mixed cocultures, DC were seeded at 10^5/100 μl/well in U bottom 96 well plates. Tumor cells were treated with 25 μM DX or 2 μM MTX for 16 hrs, washed in PBS and added into these wells at 7.5×10^5/100 μl/well. 2×10^4/50 μl γδ T cells were added into the wells 12 hrs later. Supernatant was collected 48 hrs later.

LN resident γδ T cells = assay: Cytokine stimulation of LN-derived γδ T cells (IL-17); type: cell-based, mouse
Protocol: (A-B) Cocultures of naïve LNs derived γδ T (A-B) or TCR δ^−T (A) cells in the presence of recombinant mouse cytokines (1 μg/ml IL-1β or/and IL-23, 5 μg/ml TGF-β, 10 μg/ml IL-6) (A) with or without TCR cross-linking with anti-CD3ε mAb pre-coated plates (5 μg/ml, Clone 145-2C11) (B).
Naïve C57Bl/6 mice aged between 8-10 weeks were sacrificed and the skin-draining lymph nodes (LNs) including inguinal, popliteal, superficial cervical, axillary and brachial LNs were collected. LNs were squeezed with tweezers gently in digesting buffer, kept at 37° C. for 20 min and then pass through […] cell strainer to get single cell suspension. Dead cells were removed using Dead Cell Removal Kit (Miltenyi Biotec) before purifying γδ T cells with TCRγ/δ^+ T Cell Isolation Kit (Miltenyi Biotec). An autoMACS™ Separator was used with the recommended programs. Purity of this isolation normally reached 95%. The TCR δ^− CD3^+ cells fraction was also collected from the final separation step and was called ‘non γδ T’ cells for some experiments. Day 2 after DX or PBS treatment, 2.5×10^5 cells were injected directly into the tumor with insulin syringes in adoptive transfer setting.

MCA205 cells [11] = settings: Martins I et al, Oncogene 2010; cited from earlier work

Molecule: [NH2][Pt]([NH2])([Cl])[Cl] [CDDP, cisplatin]
- CRT-GFP granularity (relocation to peripheral granular distribution) ([1]; 1 μM MTX, 150 μM CDDP, 300 μM OXP): not after treatment with CDDP
- chromatin condensation (nuclear apoptosis) ([1]; as efficiently as MTX or OXP): able to induce chromatin condensation
- surface exposure of CRT-HaloTag (U2OS cells [2]; cell-impermeable HaloTag ligand, microscopy and cytofluorometry): failed to induce the surface exposure
- surface immunofluorescence staining of CRT (U2OS cells [2]; non-permeabilized CRT-GFP cells): no immunodetectable CRT was found on the surface
- ATP release (U2OS cells [3]): induced ATP release
- protective anticancer immune response after vaccination with drug-treated MCA205 cells (MCA205 cells [4]): inefficient in inducing a protective anticancer immune response
- eIF2α phosphorylation on serine 51 (eIF2α; phospho-neoepitope-specific antibody): unable to activate
- activating phosphorylation of PERK (eIF2α; shortly after treatment): not CDDP
- IC50 (U2OS cells [5]; short-term experiments, loss of the mitochondrial transmembrane potential ΔΨm, read-out: IC50, imminent cell death): ~150 µM
- mitochondrial perturbations (ΔΨm dissipation, Bax-GFP relocation) (U2OS cells [5]; used at their IC50): induced similar mitochondrial perturbations

Molecule: N[C@@H](CCC(=O)N[C@@H](CS)C(=O)NCC(=O)O)C(=O)O [GSH]
- effect of antioxidant on CRT exposure upon Digoxin and Digitoxin treatment (U2OS cells [6]): significantly diminished CRT exposure

Molecule: CC(=O)N[C@@H](CS)C(=O)O [NAC]
- effect of antioxidant on CRT exposure upon Digoxin and Digitoxin treatment (U2OS cells [6]): significantly diminished CRT exposure

Molecule: C[C@H]1O[C@@H](O[C@H]2[C@@H](O)C[C@H](O[C@H]3[C@@H](O)C[C@H](O[C@H]4CC[C@@]5(C)[C@H](CC[C@@H]6[C@@H]5CC[C@]5(C)[C@@H](C7=CC(=O)OC7)CC[C@]65O)C4)O[C@@H]3C)O[C@@H]2C)C[C@H](O)[C@@H]1O [digitoxin]
- CRT exposure (U2OS cells [6]): induce CRT exposure
- ATP release (U2OS cells [7]): ATP release
- HMGB1 release (U2OS cells [8]): HMGB1 release

Molecule: C[C@H]1O[C@@H](O[C@H]2[C@@H](O)C[C@H](O[C@H]3[C@@H](O)C[C@H](O[C@H]4CC[C@@]5(C)[C@H](CC[C@@H]6[C@@H]5C[C@@H](O)[C@]5(C)[C@@H](C7=CC(=O)OC7)CC[C@]65O)C4)O[C@@H]3C)O[C@@H]2C)C[C@H](O)[C@@H]1O [digoxin]
- CRT exposure (U2OS cells [6]): induce CRT exposure
- ATP release (U2OS cells [7]): ATP release
- HMGB1 release (U2OS cells [8]): HMGB1 release
- vaccinating effect, MCA cells cotreated with digoxin and MitoC (MCA205 cells [9]; 20 μM MitoC with 30 μM Digoxin O/N, immunocompetent mice, rechallenge after 6 days): kept living cells of the same kind from forming a tumor
- vaccination with cells treated with digoxin alone (MCA205 cells [9]): led to tumor formation at the vaccination site
- vaccination with cells treated with digoxin alone (MCA205 cells [9]; listed as Digoxin): did not preclude the living cells from forming a tumor after rechallenge
- overall survival effect of digoxin, anthracyclin based chemotherapy subgroup (breast cancer; 20 digoxin cotreated vs 40 controls): completely disappears
- overall survival of patients that received digoxin during chemotherapy (breast cancer; 50 digoxin cotreated vs 100 controls): increased overall survival

Molecule: COc1cccc2c1C(=O)c1c(O)c3c(c(O)c1C2=O)C[C@@](O)(C(=O)CO)C[C@@H]3O[C@H]1C[C@H](N)[C@@H](O)[C@H](C)O1 [epirubicin]
- rank in screen for exposing CRT and emitting HMGB1 and ATP (U2OS cells [10]): most potent in exposing CRT, and emitting HMGB1 and ATP

Molecule: IL-1RA: IL-1R1/IL-1β antagonist (Amgen)
- IL-1β production in DC/γδ T cell co-culture (γδ T cells): not modified
- DC/γδ T cell cross-talk (IL-17 production) in the presence of dying cells (γδ T cells; DX-treated MCA205 loaded DC, 48 hrs): entirely abrogated the DC/γδ T cell cross-talk

Molecule: TGF-β
- IL-17 production by LN-resident γδ T cells in response to recombinant cytokines (LN resident γδ T cells): failed to produce IL-17

Molecule: tunicamycin
- immunogenic cell death when combined with cisplatin (MCA205 cells [11]): could induce immunogenic cell death when combined with cisplatin

B1: IL-6: recombinant mouse cytokine (protein, UniProt P08505 25-211, looked up)
Interleukin-6: FPTSQVRRGDFTEDTTPNRPVYTTSQVGGLITHVLWEIVEMRKELCNGNSDCMNNDDALAENNLKLPEIQRNDGCYQTGYNQEICLLKISSGLLEYHSYLEYMKNNLKDNKKDKARVLQRDTETLIHIFNQEVKDLHKIVLPTPISNALLTDKLESQKEWLRTKTIQFILKSLEEFLKVTLRSTRQT
- IL-17 production by LN-resident γδ T cells in response to recombinant cytokines (LN resident γδ T cells): failed to produce IL-17
